Test: gradient 5% acetonitrile 3 min, to 50% in 2 min, to 85% in 15 min, held 3 min, 100 µL/min
Settings: column: Zorbax Extend-C18 2.1 x 50 mm; eluents: water / acetonitrile, 0.1% formic acid
In short: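 Retention times come from adduct peaks that were picked computationally and then checked by hand. The standards, pure and pooled in mixtures of ~100 molecules, were run on a Zorbax Extend-C18 column (2.1 × 50 mm, 1.8 μm) at 100 μL/min with water and acetonitrile, each with 0.1% formic acid. Detection was by quadrupole time-of-flight mass spectrometry in positive and negative ionization mode, with a dead volume of 40 μL and a dwell volume of 900 μL.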

SMILES | RP-LC retention time
O=C(NC1CCN(Cc2ccccc2)CC1)c1c(OCC2CC2)cc(=O)n2c1CCCCC2 | 596 s
CCOC(=O)Cc1c(C)c2cc(C(=O)c3ccccc3)c(O)cc2oc1=O | 768 s
COCc1c(C(=O)O)nnn1-c1ccc(F)c(C)c1 | 723 s
COCn1c(-c2ccc(OC)c(OC)c2)nc2ccccc21 | 573 s
Cc1ccc(NC(=O)Nc2cccn3ncnc23)cc1 | 776 s
COc1ccc(C2C(C(=O)NCCN(C)C)c3cc(OC)c(OC)cc3C(=O)N2C)cc1OC (configuration not stated) | 589 s
CCCNC(=O)c1ccc(-c2nc3cc(NS(=O)(=O)c4cnc[nH]4)ccc3n2C)cc1 | 578 s
Cc1nn(C(C)C(=O)NCCCN2CCCC2=O)c(=O)c2nn(-c3ccccc3)c(C)c12 (configuration not stated) | 648 s
CCC(C)Nc1nc(-c2ccc(OC)cc2)nc2ccccc12 (configuration not stated) | 800 s
Cc1ccc(Cn2nc(-c3nc(C(C)(C)C)no3)ccc2=O)cc1 | 1130 s
CN[C@H]1CN(c2ccc3c(=O)c(C(=O)O)cn(-c4nccs4)c3n2)C[C@@H]1OC | 599 s
O=C(NC1CCN(Cc2ccccc2)CC1)C1CCN(c2ncnc3c2oc2ccccc23)CC1 | 603 s
O=C(CCNc1c(-c2ccc(F)cc2)nc2cnccn12)NCC1CC1 | 647 s
Cc1ccc2cc(CN3CCC4(CC3)CC(C)(O)CCO4)c(=O)[nH]c2c1 (configuration not stated) | 603 s
O=C(Cn1cnc2c(sc3nc(-c4ccccc4)ccc32)c1=O)NCCc1ccc(Cl)cc1 | 1060 s
CC1CCCN(C(=O)c2cn(-c3cc(-c4nc(C5CC5)no4)ccn3)cn2)C1 (configuration not stated) | 887 s

SMILES | RP-LC retention time
Cc1cccc(Cn2c(CN3CCC(C(=O)NCc4cccs4)CC3)cc3ccccc32)c1 | 805 s
CC(C)CC(=O)N1CCCC(C(=O)N2CCOCC2)C1 (configuration not stated) | 628 s
CCOc1ccc(-c2nnc(SCC(=O)Nc3nnc(C)s3)o2)cc1 | 776 s
CCCC(=O)N1CCC(C(=O)N2c3ccccc3CC2C)CC1 (configuration not stated) | 794 s
CC1CCC(NC(=O)C2CCCN2S(=O)(=O)c2cc3c(cc2Cl)NC(=O)CO3)CC1 (configuration not stated) | 840 s
COCCN1C(=O)CCc2cc(NS(=O)(=O)c3c(C)cccc3Cl)ccc21 | 795 s
O=[N+]([O-])c1ccc(-c2cn3ccccc3n2)cc1 | 598 s
CCc1noc([C@@H]2CC(F)(F)CN2S(=O)(=O)c2cccnc2)n1 | 773 s
Cc1ccc(CNC(=O)Cn2c(C)cc(-c3nnc(C4CCC4)o3)c2C)cc1C | 947 s
c1ccc2sc(SCc3cn4cccnc4n3)nc2c1 | 622 s
CC(=O)N1CCc2[nH]c3ccc(C(=O)NCc4ccc(N5CCN(C)CC5)cc4)cc3c2C1 | 573 s
COc1ccc(CNC(=O)c2cn3ccc(C)cc3n2)cc1OC | 604 s
CCOc1ccc(NC(=O)N2CCC(n3cnc4cc(F)ccc4c3=O)CC2)cc1 | 797 s
Cc1nc(-c2cccc(-c3noc(CNS(=O)(=O)c4ccccc4)n3)c2)cs1 | 977 s
COc1cc2c(Oc3ccc(NC(=O)C4(C(=O)Nc5ccc(F)cc5)CC4)cc3F)ccnc2cc1OCCCN1CCOCC1 | 670 s

Now from value to compound:

RP-LC retention time | SMILES
1130 s | COc1ccc(-n2ncc3c(=O)n(Cc4nc(-c5cccc(C(F)(F)F)c5)no4)cnc32)cc1
903 s | CCCCNC(=O)c1nccnc1NC(=O)c1ccccc1
555 s | O=C(O)CCC(=O)Nc1cccc(C(=O)O)c1
825 s | CCn1cc(-c2ccc(OC)cc2)cc1C(=O)O
583 s | O=C(CN1C(=O)c2ccccc2Sc2ncccc21)N1CCC(N2CCCCC2)CC1
987 s | Cc1ccc2[nH]cc(CCNC(=O)C3CCN(c4ccc(Cl)cc4)C3=O)c2c1 (configuration not stated)
1050 s | CCN1C(=O)COc2ccc(-c3nc(NC(=O)c4ccc(F)cc4)sc3C)cc21
990 s | CNS(=O)(=O)c1cccnc1Nc1cc(C)cc(C)c1
985 s | CCOC(=O)c1cc(S(=O)(=O)N2CCCC2C(=O)NCCC2=CCCCC2)cn1C (configuration not stated)
918 s | O=C(Cn1ccc2ccc(N3CCOCC3)nc21)NCc1cccc(Br)c1
667 s | COc1ccc(C(=O)Nc2cccn3c(C)nnc23)cc1F
634 s | CN(C)C(=O)c1n[nH]c2c1CN(C(=O)c1ccc(Br)cc1)CC2
610 s | CC(C)c1ccc(S(=O)(=O)N(CCN2CCCCC2C)CC(=O)N2CCNCC2)cc1 (configuration not stated)
840 s | CCn1ccc(C(=O)N2CCCC2c2cccc(F)c2)n1 (configuration not stated)
772 s | O=C(NCCc1ccco1)c1ccc2ccnc(N3CCN(c4ccccc4)CC3)c2c1
724 s | O=C(NCC1CCCO1)c1n[nH]c2c1CCCCCC2 (configuration not stated)
754 s | Cc1nnc(-c2ccc3ccn(CC(=O)NCCC(C)C)c3c2)o1
633 s | Cc1noc(CNC(=O)CCCN2C(=O)c3ccccc3C2=O)n1

RP-LC retention time | SMILES
821 s | Cc1cc(N2CCN(S(=O)(=O)c3cc(F)ccc3F)CC2)nc(NC2CCCCC2)n1
683 s | Cc1nc(C)c(CCNS(=O)(=O)c2cc(Cl)ccc2Cl)s1
754 s | COc1cc(NC(=O)C2CCN(C(=O)C3Sc4ccccc4NC3=O)CC2)cc(OC)c1 (configuration not stated)
884 s | Cc1ccsc1C(=O)Nc1ccc(-c2nc(Cn3cccn3)c(C)o2)cc1
1210 s | COc1ccccc1CNS(=O)(=O)c1ccccc1-c1nc(-c2ccc(F)cc2)no1
1220 s | Cc1ccc(S(=O)(=O)N2CCCCCC2)cc1-c1nnc(-c2ccc(F)cc2)o1
588 s | Cc1nc2c(c(N3CCSCC3)n1)CCC2
1240 s | CCc1ccccc1NS(=O)(=O)c1c(C)sc(C)c1-c1cc(C(F)(F)F)on1
779 s | O=C(NCc1ccco1)c1nc(Nc2ccc(F)cc2)c2ccccc2n1
1160 s | CCCN1C(=O)COc2ccc(-c3noc(C(C)Oc4ccccc4)n3)cc21 (configuration not stated)
899 s | CC1CCN(C(=O)C2=CN(c3ccc4c(c3)OCCO4)c3ccccc3S2(=O)=O)CC1
1040 s | Cc1nc2c(sc3nc(-c4ccccc4)ccc32)c(=O)n1CC(=O)Nc1ccc(F)cc1
702 s | CCn1cc(S(=O)(=O)N2CCCN(S(=O)(=O)c3ccccc3)CCC(=O)NCC2)cn1
577 s | O=C(NC1CC1)c1cc(N2CCCC2)nc2ccccc12
1110 s | O=S(=O)(c1ccccc1)N1CCC(c2noc(-c3cccc(F)c3)n2)CC1
602 s | CCN(CC)CCCNC(=O)Cn1c(=O)c2cccn2c2ccccc21
579 s | COc1ccc2c(c1)c(CN1CCC(N3C[C@H](OC)[C@@H]3c3cccnc3)CC1)cn2C
851 s | CCOC(=O)NC(=O)c1ccsc1NC(=O)c1ccc([N+](=O)[O-])s1

From the METLIN SMRT retention time set (Domingo-Almenara et al. 2019)
